We go through 28 compounds from patent US8106055B2, “Substituted amide compounds” (Gruenenthal GmbH, priority 2007, dated 2012).

The target of this test is T1, serotonin (5-HT) reuptake (Rattus norvegicus, UniProt P31652).
T1 construct: synaptosomes are freshly isolated from areas of the rat brain; from tissue; host or cells: rat brain synaptosomes (P2 fraction)
T1 sequence (P31652 whole entry): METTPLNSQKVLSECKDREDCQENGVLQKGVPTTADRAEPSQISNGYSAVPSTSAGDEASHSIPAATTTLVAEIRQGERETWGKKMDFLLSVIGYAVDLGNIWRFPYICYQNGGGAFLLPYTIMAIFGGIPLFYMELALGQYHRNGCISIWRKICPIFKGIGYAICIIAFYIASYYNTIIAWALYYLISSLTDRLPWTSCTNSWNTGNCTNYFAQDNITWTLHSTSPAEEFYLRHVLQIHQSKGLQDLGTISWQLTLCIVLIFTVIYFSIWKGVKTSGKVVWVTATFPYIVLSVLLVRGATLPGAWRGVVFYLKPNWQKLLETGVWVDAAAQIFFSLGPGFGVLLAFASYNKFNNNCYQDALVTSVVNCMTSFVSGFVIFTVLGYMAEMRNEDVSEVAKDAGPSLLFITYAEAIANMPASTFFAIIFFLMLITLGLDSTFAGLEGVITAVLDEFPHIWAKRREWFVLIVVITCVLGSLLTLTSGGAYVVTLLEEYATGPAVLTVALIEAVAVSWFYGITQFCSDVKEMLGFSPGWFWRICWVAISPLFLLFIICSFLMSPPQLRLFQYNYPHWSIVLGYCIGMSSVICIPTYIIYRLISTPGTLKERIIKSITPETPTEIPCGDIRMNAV
The experiment in a line: Inhibition of serotonin (5HT) reuptake in synaptosomes from rat brain. It counts as biochemical. Particulars: test concentration of 10 μM; read-out: 5-HT (inhibition of reuptake of serotonin, % inhibition). The method, boiled down: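 Compounds screened at 10 μM and reported as percent inhibition of serotonin uptake. Uptake measured in a freshly prepared P2 synaptosomal fraction from rat brain.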
As to `COc1ccc(S(=O)(=O)N2CCCCC2COCC(=O)NCC2CCC(C(c3cccc(F)c3)N(C)C)CC2)cc1` (stereo not shown) [Example 179, N-((4-((dimethylamino)(3-fluorophenyl)methyl)cyclohexyl)methyl)-2-((1-(4-methoxyphenylsulfonyl)piperidin-2-yl)methoxy)acetamide], the inhibition at 10 µM worked out at 92%.
The figure for `COc1cc(C)c(S(=O)(=O)N2CCN(CCOCC(=O)NCCC3CCC(C(c4cccc(F)c4)N(C)C)CC3)CC2)c(C)c1C` (stereo not shown) [Example 200, N-(2-(4-((dimethylamino)(3-fluorophenyl)methyl)cyclohexyl)ethyl)-2-(2-(4-(4-methoxy-2,3,6-trimethylphenylsulfonyl)piperazin-1-yl)ethoxy)acetamide] is 95%; for `CCN(CCOCC(=O)NC1CCC(C(c2cccc(F)c2)N(C)C)CC1)S(=O)(=O)c1c(C)cc(OC)c(C)c1C` (stereo not shown) [Example 176, N-(4-((dimethylamino)(3-fluorophenyl)methyl)cyclohexyl)-2-(2-(N-ethyl-4-methoxy-2,3,6-trimethylphenylsulfonamido)ethoxy)acetamide] it is 90%.
The figure for `COc1ccc(S(=O)(=O)N2Cc3ccccc3CC2COCC(=O)NCC2CCC(C(c3cccc(F)c3)N(C)C)CC2)cc1` (stereo not shown) [Example 163, N-((4-((dimethylamino)(3-fluorophenyl)methyl)cyclohexyl)methyl)-2-((2-(4-methoxyphenylsulfonyl)-1,2,3,4-tetrahydroisoquinolin-3-yl)methoxy)acetamide] is 96%.
The figure for `COc1cc(C)c(S(=O)(=O)N2CCCC(OCC(=O)NCC3CCC(C(c4cccc(F)c4)N(C)C)CC3)C2)c(C)c1C` (stereo not shown) [Example 145, N-((4-((dimethylamino)(3-fluorophenyl)methyl)cyclohexyl)methyl)-2-(1-(4-methoxy-2,3,6-trimethylphenylsulfonyl)piperidin-3-yloxy)acetamide] is 91%.
Turning to `CN(C)C(c1ccccc1)C1CCC(CNC(=O)COCC2CCCN2S(=O)(=O)c2ccc(Cl)c(Cl)c2)CC1` (stereo not shown) [Example 18, 2-((1-(3,4-dichlorophenylsulfonyl)pyrrolidin-2-yl)methoxy)-N-((4-((dimethylamino)(phenyl)methyl)cyclohexyl)methyl)acetamide], the inhibition at 10 µM was determined as 95%.
The figure for `Cc1ccc(S(=O)(=O)N2CCC(OCC(=O)NC3CCC(C(c4cccs4)N(C)C)CC3)C2)cc1` (stereo not shown) [Example 156, N-(4-((dimethylamino)(thiophen-2-yl)methyl)cyclohexyl)-2-(1-tosylpyrrolidin-3-yloxy)acetamide] is 87%; for `COc1ccc(S(=O)(=O)N2Cc3ccccc3CC2COCC(=O)NCC2CCC(C(c3ccccc3)N(C)C)CC2)cc1` (stereo not shown) [Example 19, N-((4-((dimethylamino)(phenyl)methyl)cyclohexyl)methyl)-2-((2-(4-methoxyphenylsulfonyl)-1,2,3,4-tetrahydroisoquinolin-3-yl)methoxy)acetamide] it is 92%.
The result for `COc1cc(C)c(S(=O)(=O)N2CCC(OCC(=O)NC3CCC(C(c4cccc(F)c4)N(C)C)CC3)C2)c(C)c1C` (stereo not shown) [Example 189, N-(4-((dimethylamino)(3-fluorophenyl)methyl)cyclohexyl)-2-(1-(4-methoxy-2,3,6-trimethylphenylsulfonyl)pyrrolidin-3-yloxy)acetamide] reads 96%; that for `Cc1ccc(S(=O)(=O)N(C)CCOCC(=O)NCC2CCC(C(c3ccccc3)N(C)C)CC2)cc1` (stereo not shown) [Example 157, N-((4-((dimethylamino) (phenyl)methyl)cyclohexyl)methyl)-2-(2-(N,4-dimethylphenylsulfonamido)ethoxy)acetamide], 88%; that for `CN(C)C(c1cccs1)C1CCC(CNC(=O)COC2CCCCC2N(C)S(=O)(=O)c2ccc(Cl)c(Cl)c2)CC1` (stereo not shown) [Example 31, 2-(2-(3,4-dichloro-N-methylphenylsulfonamido)cyclohexyloxy)-N-((4-((dimethylamino)(thiophen-2-yl)methyl)cyclohexyl)methyl)acetamide], 88%.
The figure for `COc1ccc(S(=O)(=O)N2CCCCC2COCC(=O)NCCC2CCC(C(c3cccs3)N(C)C)CC2)cc1` (stereo not shown) [Example 30, N-(2-(4-((dimethylamino)(thiophen-2-yl)methyl)cyclohexyl)ethyl)-2-((1-(4-methoxyphenylsulfonyl)piperidin-2-yl)methoxy)acetamide] is 98%; for `COc1cc(C)c(S(=O)(=O)N(CCOCC(=O)NC2CCC(C(c3ccccc3)N(C)C)CC2)Cc2ccccc2)c(C)c1C` (stereo not shown) [Example 193, 2-(2-(N-benzyl-4-methoxy-2,3,6-trimethylphenylsulfonamido)ethoxy)-N-(4-((dimethylamino) (phenyl)methyl)cyclohexyl)acetamide] it is 92%.
For the compound `COc1cc(C)c(S(=O)(=O)N(CCOCC(=O)NCCC2CCC(C(c3cccs3)N(C)C)CC2)Cc2ccccc2)c(C)c1` (stereo not shown) [Example 149, 2-(2-(N-benzyl-4-methoxy-2,6-dimethylphenylsulfonamido)ethoxy)-N-(2-(4-((dimethylamino) (thiophen-2-yl)methyl)cyclohexyl)ethyl)acetamide], the inhibition at 10 µM was 91%.
The figure for `Cc1ccc(S(=O)(=O)N2CCC(OCC(=O)NC3CCC(C(c4cccc(F)c4)N(C)C)CC3)C2)cc1` (stereo not shown) [Example 167, N-(4-((dimethylamino)(3-fluorophenyl)methyl)cyclohexyl)-2-(1-tosylpyrrolidin-3-yloxy)acetamide] is 86%; for `CN(C)C(c1cccs1)C1CCC(NC(=O)COC2CCN(S(=O)(=O)c3ccccc3)C2)CC1` (stereo not shown) [Example 194, N-(4-((dimethylamino)(thiophen-2-yl)methyl)cyclohexyl)-2-(1-(phenylsulfonyl)pyrrolidin-3-yloxy)acetamide] it is 86%.
The result for `CN(C)C(c1cccc(F)c1)C1CCC(NC(=O)COC2CCN(S(=O)(=O)c3cccc(C(F)(F)F)c3)C2)CC1` (stereo not shown) [Example 139, N-(4-((dimethylamino)(3-fluorophenyl)methyl)cyclohexyl)-2-(1-(3-(trifluoromethyl)phenylsulfonyl)pyrrolidin-3-yloxy)acetamide] reads 79%.
The result for `COc1cc(C)c(S(=O)(=O)N(CCOCC(=O)NCC2CCC(C(c3ccccc3)N(C)C)CC2)Cc2ccccc2)c(C)c1` (stereo not shown) [Example 148, 2-(2-(N-benzyl-4-methoxy-2,6-dimethylphenylsulfonamido)ethoxy)-N-((4-((dimethylamino)(phenyl)methyl)cyclohexyl)methyl)acetamide] reads 95%; that for `CN(C)C(c1cccc(F)c1)C1CCC(NC(=O)COCCN(C)S(=O)(=O)c2ccc(Cl)cc2)CC1` (stereo not shown) [Example 196, 2-(2-(4-chloro-N-methylphenylsulfonamido)ethoxy)-N-(4-((dimethylamino)(3-fluorophenyl)methyl)cyclohexyl)acetamide], 92%.
Take `COc1cc(C)c(S(=O)(=O)N2CCC(OCC(=O)NC3CCC(C(c4ccccc4)N(C)C)CC3)C2)c(C)c1` (stereo not shown) [Example 165, N-(4-((dimethylamino)(phenyl)methyl)cyclohexyl)-2-(1-(4-methoxy-2,6-dimethylphenylsulfonyl)pyrrolidin-3-yloxy)acetamide]: the inhibition at 10 µM is 20%.
The result for `CN(C)C(c1ccccc1)C1CCC(NC(=O)COCCN(C)S(=O)(=O)c2c(F)c(F)c(F)c(F)c2F)CC1` (stereo not shown) [Example 136, N-(4-((dimethylamino)(phenyl)methyl)cyclohexyl)-2-(2-(2,3,4,5,6-pentafluoro-N-methylphenylsulfonamido)ethoxy)acetamide] reads 83%; that for `Cc1cc(C)c(S(=O)(=O)N2CCC(OCC(=O)NCC3CCC(C(c4ccccc4)N(C)C)CC3)C2)c(C)c1` (stereo not shown) [Example 26, N-((4-((dimethylamino)(phenyl)methyl)cyclohexyl)methyl)-2-(1-(mesitylsulfonyl)pyrrolidin-3-yloxy)acetamide], 83%.
The figure for `COc1ccc(S(=O)(=O)N2CCCCC2COCC(=O)NCCC2CCC(C(c3cccc(F)c3)N(C)C)CC2)cc1` (stereo not shown) [Example 180, N-(2-(4-((dimethylamino)(3-fluorophenyl)methyl)cyclohexyl)ethyl)-2-((1-(4-methoxyphenylsulfonyl)piperidin-2-yl)methoxy)acetamide] is 93%; for `COc1ccc(S(=O)(=O)N2Cc3ccccc3CC2COCC(=O)NCCC2CCC(C(c3cccc(F)c3)N(C)C)CC2)cc1` (stereo not shown) [Example 190, N-(2-(4-((dimethylamino) (3-fluorophenyl)methyl)cyclohexyl)ethyl)-2-((2-(4-methoxyphenylsulfonyl)-1,2,3,4-tetrahydroisoquinolin-3-yl)methoxy)acetamide] it is 79%.
Turning to `COc1cc(C)c(S(=O)(=O)N2CCCC(OCC(=O)NC3CCC(C(c4cccs4)N(C)C)CC3)C2)c(C)c1C` (stereo not shown) [Example 144, N-(4-((dimethylamino)(thiophen-2-yl)methyl)cyclohexyl)-2-(1-(4-methoxy-2,3,6-trimethylphenylsulfonyl)piperidin-3-yloxy)acetamide], the inhibition at 10 µM amounted to 87%.
The result for `CN(C)C(c1cccc(F)c1)C1CCC(NC(=O)COCCN(C)S(=O)(=O)c2c(Cl)cccc2Cl)CC1` (stereo not shown) [Example 171, 2-(2-(2,6-dichloro-N-methylphenylsulfonamido)ethoxy)-N-(4-((dimethylamino)(3-fluorophenyl)methyl)cyclohexyl)acetamide] reads 78%.
The figure for `CN(C)C(c1ccccc1)C1CCC(CNC(=O)COCCN(C)S(=O)(=O)c2c(Cl)cccc2Cl)CC1` (stereo not shown) [Example 13, 2-(2-(2,6-dichloro-N-methylphenylsulfonamido)ethoxy)-N-((4-((dimethylamino)(phenyl)methyl)cyclohexyl)methyl)acetamide] is 84%.
The figure for `CN(C)C(c1cccs1)C1CCC(NC(=O)COC2CCN(S(=O)(=O)c3ccc(F)cc3)C2)CC1` (stereo not shown) [Example 28, N-(4-((dimethylamino)(thiophen-2-yl)methyl)cyclohexyl)-2-(1-(4-fluorophenylsulfonyl)pyrrolidin-3-yloxy)acetamide] is 76%.
